For four compounds, mutagenic call results are on record in PubChem BioAssay AID1259407 (Chemical Carcinogenesis Research Information System (CCRIS), 2018).

The data set concerns CCRIS mutagenicity, Ames/micronucleus/aberration tests. Nature of the data set: CCRIS mutagenicity studies.

Calls of active or inactive are those of the source. How the calls were made is not given here.

With `O=[N+]([O-])c1ccc2ccc3cc4c(c5ccc1c2c35)C1OC1[C@@H](O)[C@@H]4O` (some centres undefined), the mutagenic call (Test System: CHINESE HAMSTER OVARY, Strain/Indicator: CHO-K1-BH4 (HGPRT)/6-THIOGUANINE, Metabolic Activation: NONE) was “active; positive”.

For `O=C1CCCCC1`, the mutagenic call (Test System: AMES SALMONELLA TYPHIMURIUM, Strain/Indicator: TA98, Metabolic Activation: HAMSTER, LIVER, S-9, AROCLOR 1254, Method: PREINCUBATION) is “inactive; negative”; the mutagenic call (Test System: AMES SALMONELLA TYPHIMURIUM, Strain/Indicator: TA98, Metabolic Activation: NONE, Method: PREINCUBATION) was “inactive; negative”; the mutagenic call (Test System: AMES SALMONELLA TYPHIMURIUM, Strain/Indicator: TA98, Metabolic Activation: RAT, LIVER, S-9, AROCLOR 1254, Method: PREINCUBATION) was “inactive; negative”; the mutagenic call (Test System: AMES SALMONELLA TYPHIMURIUM, Strain/Indicator: TA100, Metabolic Activation: HAMSTER, LIVER, S-9, AROCLOR 1254, Method: PREINCUBATION) is “inactive; negative”; the mutagenic call (Test System: AMES SALMONELLA TYPHIMURIUM, Strain/Indicator: TA100, Metabolic Activation: NONE, Method: PREINCUBATION) is “inactive; negative”; the mutagenic call (Test System: AMES SALMONELLA TYPHIMURIUM, Strain/Indicator: TA100, Metabolic Activation: RAT, LIVER, S-9, AROCLOR 1254, Method: PREINCUBATION) was “inactive; negative”. The mutagenic call runs as follows: (Test System: AMES SALMONELLA TYPHIMURIUM, Strain/Indicator: TA1535, Metabolic Activation: HAMSTER, LIVER, S-9, AROCLOR 1254, Method: PREINCUBATION) “inactive; negative”; (Test System: AMES SALMONELLA TYPHIMURIUM, Strain/Indicator: TA1535, Metabolic Activation: NONE, Method: PREINCUBATION) “inactive; negative”; (Test System: AMES SALMONELLA TYPHIMURIUM, Strain/Indicator: TA1535, Metabolic Activation: RAT, LIVER, S-9, AROCLOR 1254, Method: PREINCUBATION) “inactive; negative”; (Test System: AMES SALMONELLA TYPHIMURIUM, Strain/Indicator: TA1537, Metabolic Activation: HAMSTER, LIVER, S-9, AROCLOR 1254, Method: PREINCUBATION) “inactive; negative”; (Test System: AMES SALMONELLA TYPHIMURIUM, Strain/Indicator: TA1537, Metabolic Activation: NONE, Method: PREINCUBATION) “inactive; negative”; (Test System: AMES SALMONELLA TYPHIMURIUM, Strain/Indicator: TA1537, Metabolic Activation: RAT, LIVER, S-9, AROCLOR 1254, Method: PREINCUBATION) “inactive; negative”. Further, the mutagenic call is “inactive; negative” (Test System: Mouse lymphoma, Strain/Indicator: L5178Y (tk+/tk-), Metabolic Activation: None, Method: Suspension/plate) and “active; positive” (Test System: Mouse lymphoma, Strain/Indicator: L5178Y (tk+/tk-), Metabolic Activation: Rat, Liver, S-9, Aroclor 1254, Method: Suspension/plate).

Turning to `O=C/C=C/C=C/CO`, under “Test System: CHINESE HAMSTER V-79, Strain/Indicator: V-79 (HGPRT)/8-AZAGUANINE, Metabolic Activation: NONE”, the mutagenic call was “active; positive”.

With `CC1=CC(=O)c2nc(C)c3c([nH]c4ccccc43)c2C1=O`, the mutagenic call reads like this: (Test System: AMES SALMONELLA TYPHIMURIUM, Strain/Indicator: TA97, Metabolic Activation: NONE, Method: STANDARD PLATE) “active; positive”; (Test System: AMES SALMONELLA TYPHIMURIUM, Strain/Indicator: TA97, Metabolic Activation: RAT, LIVER, S-9, AROCLOR 1254, Method: STANDARD PLATE) “active; positive”; (Test System: AMES SALMONELLA TYPHIMURIUM, Strain/Indicator: TA98, Metabolic Activation: NONE, Method: STANDARD PLATE) “active; positive”; (Test System: AMES SALMONELLA TYPHIMURIUM, Strain/Indicator: TA98, Metabolic Activation: RAT, LIVER, S-9, AROCLOR 1254, Method: STANDARD PLATE) “active; positive”; (Test System: AMES SALMONELLA TYPHIMURIUM, Strain/Indicator: TA100, Metabolic Activation: NONE, Method: STANDARD PLATE) “active; positive”; (Test System: AMES SALMONELLA TYPHIMURIUM, Strain/Indicator: TA100, Metabolic Activation: RAT, LIVER, S-9, AROCLOR 1254, Method: STANDARD PLATE) “inactive; negative”. Further, the mutagenic call runs as follows: (Test System: AMES SALMONELLA TYPHIMURIUM, Strain/Indicator: TA102, Metabolic Activation: NONE, Method: STANDARD PLATE) “inactive; negative”; (Test System: AMES SALMONELLA TYPHIMURIUM, Strain/Indicator: TA102, Metabolic Activation: RAT, LIVER, S-9, AROCLOR 1254, Method: STANDARD PLATE) “inactive; negative”.
